Values of other authors as cited in article PMC5601361, “Targeting the Receptor for Advanced Glycation Endproducts (RAGE): A Medicinal Chemistry Perspective” (Journal of Medicinal Chemistry, 2017).
Entries after “also recorded” stand apart in the source; their conditions may differ. Where two headings read alike, the source gives them in different places. One block for each molecule: values may come before it.

What was measured:
[1] = target: human RAGE; design: method as in PMID 22742537, PMID 24727489; conditions: SPR
[2] = system: C6 glioma cells; design: method as in PMID 22742537; conditions: in vitro; 3 at 10 μM
[3] = system: wild-type mice; design: method as in PMID 22742537, PMID 24727489; conditions: given prior to human Aβ administration, 3 ip, 7 iv 25 mg/kg
[4] = system: human RAGE-Aβ1–42; conditions: ELISA on human RAGE-Aβ1–42; for inhibitory activity compared with another compound: at 20 μM
[5] = system: APPswe/PS1 mice
[6] = system: sRAGE
[7] = target: human sRAGE; design: method as in PMID 22406537; conditions: V domain, read-out: affinity for RAGE (Kd)
[8] = target: human RAGE; design: method as in PMID 22493510, PMID 21347371; conditions: SPR on human RAGE
[9] = system: tumor cell; design: method as in PMID 23421467; conditions: in vitro and in vivo
[10] = system: Aβ; design: method as in PMID 26899576; conditions: 50 μM
[11] = system: RAGE-overexpressing SH-SY5Y cells
[12] = system: LLC and B16 melanoma cells; design: method as in PMID 22493510, PMID 21347371; conditions: single preadministration
[13] = design: method as in PMID 25533401
[14] = target: human sRAGE; design: method as in PMID 24824951; conditions: V domain; read-out: affinity for RAGE (Kd)
[15] = system: pancreatic cancer cell lines; design: method as in PMID 22718861; conditions: several cancer cell lines
[16] = system: immune-deficient mice implanted with cancer cells; design: method as in PMID 22718861; conditions: ip delivery
[17] = system: rats; design: method as in PMID 25757085, PMID 20223279
[18] = system: diabetic mice; design: method as in PMID 18245563, PMID 26807573, PMID 14568011
[19] = system: human brain tissue; design: method as in PMID 26771209
[20] = design: method as in PMID 26771209
[21] = design: method as in PMID 26771209; remark: listed apart in the source
[22] = system: aortas of aged rats; design: method as in PMID 25160740
[23] = system: Wistar rats treated with AGEs; design: method as in PMID 26738988; conditions: ip 1 mg/kg/day for 4 weeks
[24] = system: RAGE-transfected CHO cells
[25] = system: APPsw/0 mice
[26] = system: sRAGE; remark: listed apart in the source
[27] = target: rat and mouse sRAGE; design: method as in PMID 7592757; conditions: VC1C2
[28] = target: human RAGE; design: method as in PMID 25084534; conditions: V domain; Ca2+-bound S100P homodimer; read-out: affinity for RAGE (Kd)
[29] = read-out: IC50, interaction of sRAGE to CML
[30] = read-out: IC50, interaction of sRAGE to S110B
[31] = read-out: IC50, interaction of sRAGE to amyloid β

Molecule: CCN(CC)CCOc1cccc(Nc2nc(-c3ccc(Cl)cc3)cc(-c3ccc(Cl)cc3)n2)c1 [Compound 3]
Kd [1]: 102000 nM
Aβ-induced NF-κB signaling [2]: down-regulation; also recorded: • downregulation of Aβ-induced NF-κB (in vitro)
Aβ brain entry / accumulation in the brain ([3]; 25 mg/kg): inhibited Aβ brain entry; also recorded: • inhibition of Aβ accumulation in the brain (in vivo)
IC50 [4]: 16500 nM
concentration of toxic soluble Aβ in the brain ([5]; oral 50 mg/kg per day for up to three months): significantly lowered

IC50 [6, 29]: < 500 nM
IC50 [6, 30]: < 500 nM
IC50 [6, 31]: < 500 nM
Molecule: CCCCn1c([C@@H](Cc2ccc(OCCc3ccc(Cl)cc3)cc2)NC(=O)OC(C)(C)C)nc2cc(OCCCN(CC)CC)ccc21 [Compound 11]

Kd ([7]; listed as 125I-labeled Aβ1–40): 75 nM
Kd [7]: 70 to 80 nM
Molecule: β amyloid: β amyloid peptide, RAGE ligand

Kd [8]: 3.1 nM
Molecule: heparin [Compound 17]
tumor cell growth, migration, invasion and distant metastasis [9]: inhibited tumor cell growth, migration, invasion, and distant metastasis

Molecule: O=C1CCC[C@@H]2[C@H]3CCCN4CCC[C@@H](CN12)[C@@H]34 [Compound 14, matrine, reference compound]
Aβ aggregation or fibrillation [10]: prevents Aβ aggregation or fibrillation
Aβ-induced cytotoxicity [11]: inhibits Aβ-induced cytotoxicity
RAGE-Aβ signaling pathway (NF-κB and BACE1 expression levels) ([11]; 50 μM): decrease of NF-κB and BACE1 expression levels
Aβ1–42, NF-κB, BACE1 and cytokines ([11]; in vitro and in vivo): • reduced Aβ1–42, NF-κB, BACE1 and cytokines (in vitro and in vivo)
brain Aβ, NF-κB, BACE1 levels ([5]; ip 100 mg/kg): reduces
proinflammatory cytokines (TNF-α and IL-1β) ([5]; ip 100 mg/kg): downregulates
transport across the BBB ([5]; ip 100 mg/kg, AD transgenic mice): is transported across the BBB

Kd [8]: 0.6 nM
Molecule: heparan sulfate [Compound 16]
lung colonization by tumor cells [12]: suppressed

IC50 [6, 29]: < 500 nM
IC50 [6, 30]: < 500 nM
IC50 [6, 31]: < 500 nM
Molecule: CCCCOc1cc(OCCCN(CC)CC)ccc1NC(=O)C(CC1CCN(Cc2ccccc2)CC1)NC(=O)OCC1c2ccccc2-c2ccccc21 (stereo not shown) [Compound 10]

solubility compared to 3 [13]: improved
Molecule: CN(C)C1CCN(CCOc2cccc(Nc3nc(-c4ccc(Cl)cc4)cc(-c4ccc(Cl)cc4)n3)c2)C1 (stereo not shown) [Compound 5]
inhibitory activity compared with another compound [4]: improved RAGE-Aβ1–42 inhibition

IC50 [4]: 4600 nM
Molecule: CCN(CC)CCOc1ccccc1Nc1nc(-c2ccc(Cl)cc2)cc(-c2ccc(Cl)cc2)n1 [Compound 4]
Aβ-induced NF-κB signaling [2]: • downregulation of Aβ-induced NF-κB (in vitro)
Aβ brain entry / accumulation in the brain [3]: • inhibition of Aβ accumulation in the brain (in vivo)

Kd [14]: 30 to 40 nM
Molecule: methylglyoxal-derived hydroimidazolones [MG-H]

Molecule: ELKVLMEKEL [Compound 19, RAGE antagonistic peptide developed from the structure of S100P]
RAGE activation of NF-κB, inflammation, tumor growth and metastasis [15]: reduced; also recorded: inhibition of NF-κB, inflammation, tumor growth and metastasis
tumor growth, metastasis and inflammation [16]: reduction of tumor growth, metastasis, and inflammation

Molecule: O=C(O)c1cccnc1C(=O)O [quinolinic acid]
neuronal death in the striatum [17]: dose-dependent neuronal death in the striatum

Molecule: CCN(CC)CCOc1ccc(OC)cc1NC(=O)c1nc(-c2ccc(F)cc2)cc(-c2ccc(F)cc2)n1 [Compound 6]
inhibitory activity compared with another compound [4]: superior RAGE inhibition than 3

Molecule: C[C@H](CCC(=O)O)[C@H]1CC[C@H]2[C@@H]3[C@@H](O)C[C@@H]4C[C@H](O)CC[C@]4(C)[C@H]3CC[C@]12C [ursodeoxycholic acid]
antiatherogenic activity [18]: antiatherogenic activity

metabolism in rat liver microsomes [20]: rapidly metabolized
time of peak after iv injection [21]: ≤ 3 min
washout over the PET scan [21]: virtually complete washout
Molecule: O=C(c1ccc([18F])cc1)N(Cc1ccccc1)C1CCCCC1 [[^18F]13]
uptake in frontal cortex of AD compared with healthy control tissue [19]: higher uptake
nonspecific binding in vivo ([21]; iv injection): significant nonspecific binding to the white matter

Kd [8]: 0.2 nM
Molecule: chondroitin sulfate E [Compound 15]
lung colonization by tumor cells [12]: suppressed

Kd [1]: 43400 nM
Molecule: CCCCOc1cc(OCCCN(CC)CC)ccc1NC(=O)c1cc(-c2ccc(Oc3ccc(F)cc3)cc2)nn1C [Compound 7]
Aβ brain entry / accumulation in the brain [3]: reduce Aβ entry in the brain

binding specificity in the CNS [25]: bound exclusively to RAGE
soluble APP β protein, p65, NF-κB and BACE1 mRNA levels in cortex and hippocampus ([25]; ip 1 mg/kg daily for 2 months): reduced
binding to immobilized Aβ [26]: did not bind
BBB permeability: acceptable BBB permeability
Molecule: O=C(c1ccc(Cl)cc1)N(Cc1ccccc1)C1CCCCC1 [Compound 12, N-Benzyl-N-cyclohexyl-4-chlorobenzamide]
GSH/GSSG ratio [22]: increased
malondialdehyde and ROS production [22]: reduced
Aβ expression and APP production, NF-κB-mediated Aβ production, inflammatory response, ROS and lipid peroxidation [23]: reduction
antioxidant enzyme activity [23]: increased
toxicity in RAGE-transfected CHO cells ([24]; 10 μM): nontoxic
cytotoxicity / toxicology profile in vitro and in vivo ([24]; cell culture and rodents): good toxicology profile; also recorded: • low cytotoxicity in vitro and in vivo
Aβ1–40-induced NF-κB activation, BACE1 expression, cytokines ([24]; in vitro and in vivo): • reduced Aβ1–40-induced NF-κB activation, BACE1 expression, cytokines (in vitro and in vivo)
RAGE-mediated cellular oxidative stress, BACE1 mRNA, BACE1 activity, nuclear NF-κB levels ([24]; induced by Aβ1–40 and Aβ1–42): reduced
Aβ1–40 and Aβ1–42 levels in brain (cortex, hippocampus) [25]: reducing their levels in the cortex and the hippocampus; also recorded: • reduced Aβ1–40 and Aβ1–42 levels in brain
RAGE actions at the BBB and in the brain [25]: • blocked RAGE actions at the BBB and in the brain
RAGE-mediated influx of circulating Aβ1–40 and Aβ1–42 into the brain [25]: inhibited; also recorded: • inhibition of Aβ influx in the brain (in vivo)
neuronal oxidative stress, microglia activation, neuroinflammation [25]: reduced Aβ-induced RAGE-dependent oxidative stress in neurons, suppressed microglia activation, and neuroinflammation
cognitive performance and cerebral blood flow ([25]; aged APPsw/0 mice): • normalized cognitive performance and cerebral blood flow in aged APPsw/0 mice
dose not toxic ([25]; ip, 15–17-month-old APPsw/0 mice): up to 500 mg/kg
Aβ1–40, Aβ1–42, S100B, HMGB1 binding to RAGE ([26]; in vitro): • inhibited Aβ1–40, Aβ1–42, S100B, HMGB1 binding to RAGE (in vitro)

affinity for RAGE (Kd) [27]: low nanomolar range
Kd ([27]; read-out: affinity for RAGE (Kd)): 6 to 10 nM
Molecule: HMGB1 (amphoterin): high mobility group box 1, cytokine-type RAGE ligand

Kd [14]: 40 nM
Molecule: CC1NC(NCCC[C@H](N)C(=O)O)=NC1=O (stereo partly shown) [MG-H1, methylglyoxal-derived hydroimidazolone-1]

Kd [28]: 6000 nM
B1: S100P: S100 family protein binding the RAGE V domain (protein, UniProt P25815 1-95, looked up)
Protein S100-P: MTELETAMGMIIDVFSRYSGSEGSTQTLTKGELKVLMEKELPGFLQSGKDKDAVDKLLKDLDANGDAQVDFSEFIVFVAAITSACHKYFEKAGLK
